The numbers were not newly measured in patent US20110218104A1, “Biodiesel Solvents in Pesticide Compositions” (AUBURN UNIVERSITY, priority 2010, published 2011), which cites them from elsewhere.

The structures appear in SMILES notation.

The conditions of this series: Merck Index, 1989.

For `NC(N)=O` [urea], the solubility in glycerin result is on record as “considerable solubility”.
